Experiment: mn = molality of the nth substance listed, in mol/kg
Conditions: 100 kPa, Liquid; for speed of sound: Frequency=3 MHz, Single path-length method; for mass density: Vibrating tube method

OCC(O)CO [glycerol] + O
Conditions	mass density, 293.15 K [kg/m3]	mass density, 298.15 K [kg/m3]	mass density, 303.15 K [kg/m3]	mass density, 308.15 K [kg/m3]	speed of sound, 293.15 K [m/s]	speed of sound, 298.15 K [m/s]	speed of sound, 303.15 K [m/s]	speed of sound, 308.15 K [m/s]
m1 = 0.01	998.452	997.308	995.869	994.253	1483.2	1497	1509.3	1519.9
m1 = 0.03	998.865	997.707	996.304	994.684	1484	1497.8	1510	1520.6
m1 = 0.05	999.29	998.124	996.72	995.094	1484.8	1498.6	1510.7	1521.2
m1 = 0.07	999.691	998.513	997.109	995.469	1485.5	1499.3	1511.4	1521.8

O [water] + OCC(O)CO
m2 = 0
Conditions	speed of sound [m/s]
298.15 K	1495.8
308.15 K	1519.1

Source: the NIST ThermoML archive (doi:10.1016/j.jct.2018.07.015)
